Source: article PMC12673082 (Nature Communications, 2025)
Where “and” joins values, the source holds several entries; their conditions need not be identical. Identical values can stand only once.

Legend:
[1] = target: pdP2X7 (Ailuropoda melanoleuca, UniProt G1M6C4); assay: Whole-cell patch clamp, ATP-evoked current, transfected HEK293; type: cell-based, giant panda (Ailuropoda melanoleuca)
[2] = target: hP2X3 (Homo sapiens, UniProt P56373); assay: Nystatin-perforated patch recording, ATP-evoked current, HEK293; type: cell-based; conditions: HEK293, read-out: inhibition rate
Sequence of hP2X3 (P56373 whole entry): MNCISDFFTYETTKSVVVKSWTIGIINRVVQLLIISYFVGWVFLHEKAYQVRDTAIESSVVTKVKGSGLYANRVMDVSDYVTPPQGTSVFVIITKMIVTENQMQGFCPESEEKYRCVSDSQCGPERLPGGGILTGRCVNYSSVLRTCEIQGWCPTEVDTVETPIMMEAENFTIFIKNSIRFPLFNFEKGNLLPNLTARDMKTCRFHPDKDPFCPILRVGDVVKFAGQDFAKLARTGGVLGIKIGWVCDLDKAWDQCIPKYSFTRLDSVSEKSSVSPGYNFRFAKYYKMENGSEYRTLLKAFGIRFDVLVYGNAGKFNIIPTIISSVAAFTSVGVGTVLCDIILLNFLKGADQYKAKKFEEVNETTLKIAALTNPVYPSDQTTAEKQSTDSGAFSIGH

[3] = target: T1, pdP2X7 M105F (Ailuropoda melanoleuca, UniProt G1M6C4, M106F); assay: cell-based
T1 sequence (G1M6C4 2-595 M106F): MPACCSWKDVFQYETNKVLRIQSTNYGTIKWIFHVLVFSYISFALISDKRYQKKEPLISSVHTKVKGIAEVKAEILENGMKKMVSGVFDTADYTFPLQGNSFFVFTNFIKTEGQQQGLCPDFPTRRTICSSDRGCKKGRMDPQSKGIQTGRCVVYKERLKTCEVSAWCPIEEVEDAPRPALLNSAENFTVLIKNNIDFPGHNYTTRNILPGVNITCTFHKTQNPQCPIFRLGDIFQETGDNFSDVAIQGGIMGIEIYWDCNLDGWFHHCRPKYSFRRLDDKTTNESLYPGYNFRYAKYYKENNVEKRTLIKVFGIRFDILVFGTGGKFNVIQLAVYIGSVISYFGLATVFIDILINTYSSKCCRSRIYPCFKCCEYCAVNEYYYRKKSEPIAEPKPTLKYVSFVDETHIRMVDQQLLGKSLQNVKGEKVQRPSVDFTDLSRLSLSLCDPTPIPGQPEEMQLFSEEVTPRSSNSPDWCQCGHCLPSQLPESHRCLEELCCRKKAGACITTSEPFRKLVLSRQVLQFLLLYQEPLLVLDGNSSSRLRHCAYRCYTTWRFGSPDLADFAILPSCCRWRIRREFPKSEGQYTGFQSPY

[4] = target: pdP2X7 V312A (Ailuropoda melanoleuca, UniProt G1M6C4, V313A); conditions: pd7 V312A, 10 μM
Sequence of pdP2X7 V312A (G1M6C4 2-595 V313A): as the sequence (G1M6C4 2-595 M106F) above, with F105M, V312A counted along it

[5] = target: T1, pdP2X7 M105F; conditions: pd7 M105F, 10 μM
[6] = target: hP2X4 (Homo sapiens, UniProt Q99571); assay: Nystatin-perforated patch recording, ATP-evoked current, HEK293; type: cell-based; conditions: HEK293, read-out: inhibition rate
Sequence of hP2X4 (Q99571 whole entry): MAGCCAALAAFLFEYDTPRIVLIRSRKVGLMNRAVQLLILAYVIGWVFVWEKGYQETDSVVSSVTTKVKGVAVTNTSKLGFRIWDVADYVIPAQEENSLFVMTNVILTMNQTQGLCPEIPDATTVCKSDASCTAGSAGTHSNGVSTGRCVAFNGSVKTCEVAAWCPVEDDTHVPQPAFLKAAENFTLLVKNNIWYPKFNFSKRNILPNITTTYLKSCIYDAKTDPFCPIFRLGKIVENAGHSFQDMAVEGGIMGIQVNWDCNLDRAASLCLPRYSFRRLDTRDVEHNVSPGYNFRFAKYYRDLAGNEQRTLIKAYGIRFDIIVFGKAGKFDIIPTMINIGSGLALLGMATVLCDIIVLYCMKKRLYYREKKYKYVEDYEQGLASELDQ

[7] = target: pdP2X7 E305F (Ailuropoda melanoleuca, UniProt G1M6C4, E306F); assay: cell-based
Sequence of pdP2X7 E305F (G1M6C4 2-595 E306F): as the sequence (G1M6C4 2-595 M106F) above, with F105M, E305F counted along it

[8] = target: hP2X1 (Homo sapiens, UniProt P51575); assay: Whole-cell patch clamp, ATP-evoked current, transfected HEK293; type: cell-based; conditions: HEK293, read-out: inhibition rate
Sequence of hP2X1 (P51575 whole entry): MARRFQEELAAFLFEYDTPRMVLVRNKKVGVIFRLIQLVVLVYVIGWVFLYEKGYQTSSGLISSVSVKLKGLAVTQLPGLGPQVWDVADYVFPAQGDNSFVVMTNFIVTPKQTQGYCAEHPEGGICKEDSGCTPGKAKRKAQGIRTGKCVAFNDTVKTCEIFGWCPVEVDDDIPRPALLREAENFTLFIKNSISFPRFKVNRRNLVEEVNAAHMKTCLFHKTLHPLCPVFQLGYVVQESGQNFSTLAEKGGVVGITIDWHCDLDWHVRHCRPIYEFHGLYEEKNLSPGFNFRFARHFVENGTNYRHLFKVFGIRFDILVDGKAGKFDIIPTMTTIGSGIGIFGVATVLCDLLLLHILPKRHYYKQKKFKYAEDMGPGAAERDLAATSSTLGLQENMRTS

[9] = target: pdP2X7 P96G (Ailuropoda melanoleuca, UniProt G1M6C4, P97G); assay: cell-based
Sequence of pdP2X7 P96G (G1M6C4 2-595 P97G): as the sequence (G1M6C4 2-595 M106F) above, with P96G, F105M counted along it

[10] = target: T2, mP2X7 A312V (Mus musculus, UniProt Q9Z1M0, A312V); assay: Whole-cell patch clamp, mP2X7 mutant; type: cell-based
T2 sequence (Q9Z1M0 1-595 A312V): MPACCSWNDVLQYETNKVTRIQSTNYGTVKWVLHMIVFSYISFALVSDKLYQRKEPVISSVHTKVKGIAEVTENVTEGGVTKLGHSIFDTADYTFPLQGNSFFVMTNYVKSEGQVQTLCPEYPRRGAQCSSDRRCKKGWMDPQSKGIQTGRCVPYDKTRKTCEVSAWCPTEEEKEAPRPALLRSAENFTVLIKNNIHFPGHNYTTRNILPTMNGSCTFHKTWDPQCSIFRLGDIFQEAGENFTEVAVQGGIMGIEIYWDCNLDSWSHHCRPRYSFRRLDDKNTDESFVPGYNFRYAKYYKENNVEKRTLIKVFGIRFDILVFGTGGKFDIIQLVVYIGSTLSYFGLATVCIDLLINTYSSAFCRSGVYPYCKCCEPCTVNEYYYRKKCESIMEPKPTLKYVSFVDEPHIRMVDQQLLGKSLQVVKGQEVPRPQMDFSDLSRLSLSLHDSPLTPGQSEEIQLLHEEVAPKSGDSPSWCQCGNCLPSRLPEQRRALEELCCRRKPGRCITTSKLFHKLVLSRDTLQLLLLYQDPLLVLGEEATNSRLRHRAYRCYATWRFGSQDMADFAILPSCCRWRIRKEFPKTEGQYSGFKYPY

[11] = target: T3, hP2X7 (Homo sapiens, UniProt Q99572); assay: Whole-cell patch clamp, ATP-evoked current, transfected HEK293; type: cell-based
T3 sequence (Q99572 1-595): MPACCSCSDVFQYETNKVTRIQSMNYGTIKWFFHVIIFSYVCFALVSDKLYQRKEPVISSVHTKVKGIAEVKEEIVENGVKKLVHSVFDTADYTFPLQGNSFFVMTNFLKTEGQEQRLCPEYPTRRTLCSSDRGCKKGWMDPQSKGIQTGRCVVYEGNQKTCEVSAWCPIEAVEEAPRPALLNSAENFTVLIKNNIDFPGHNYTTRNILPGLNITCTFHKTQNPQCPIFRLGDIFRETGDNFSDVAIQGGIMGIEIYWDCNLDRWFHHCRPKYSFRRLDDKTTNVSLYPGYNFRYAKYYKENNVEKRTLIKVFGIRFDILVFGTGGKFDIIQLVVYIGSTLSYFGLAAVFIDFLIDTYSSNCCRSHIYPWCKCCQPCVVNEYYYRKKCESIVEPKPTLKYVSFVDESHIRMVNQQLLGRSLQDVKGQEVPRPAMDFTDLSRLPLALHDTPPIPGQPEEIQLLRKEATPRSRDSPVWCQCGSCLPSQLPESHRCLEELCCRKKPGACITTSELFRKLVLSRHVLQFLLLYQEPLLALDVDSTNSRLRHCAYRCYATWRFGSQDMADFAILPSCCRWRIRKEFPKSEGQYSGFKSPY

Sequence of pdP2X7 (G1M6C4 2-595): as the sequence (G1M6C4 2-595 M106F) above, with F105M counted along it

## C=CC[C@@H]1c2ccc(OC)c(OC)c2CN2CCc3cc4c(cc3[C@H]12)OCO4 [PSFL1191, (13R,13aS)-13-allyl-9,10-dimethoxy-5,8,13,13a-tetrahydro-6H-1,3dioxolo[4,5-g]isoquinolino[3,2-a]isoquinoline]
[1]
  IC50: 754 ± 18 nM
[1]; pdP2X7
  apparent affinity, times lower than that of JNJ-54175446: 10-20 times
[2]
  inhibition at 30 µM: 20.6 ± 6.4%
[3]
  IC50: 2060 nM
[4]
  inhibitory effect on ATP (1 mM)-induced activation (inhibition ratio): significantly attenuated
[5]
  inhibitory effect on ATP (1 mM)-induced activation (inhibition ratio): significantly attenuated
[6]
  inhibition at 30 µM: -17.6 ± 9%
[7]
  IC50: 1570 ± 360 nM
[8]
  inhibition at 30 µM: -8.35 ± 4.49%
[9]
  IC50: 8060 nM
[10]
  IC50: 908 ± 26 nM
[10]; mP2X7 A312V, 1 μM
  fold increase of inhibition compared to m7WT: ~ 21 fold and 21 fold
[11]
  IC50: 248 ± 17 nM
  fold difference in affinity for hP2X7 between PSFL1191 and PSFL1190: ~50 fold and > 50 fold
